What is called pEC50 is the EC50 on a negative log10 scale, so that one unit is a factor of ten. The low end stands for a high EC50, the high end for a low EC50. Broadly, the pKi is −log10 of the Ki, conventionally taken in molar units.

pEC50, pKi: −log10 of the molar value. Some results are limits rather than exact numbers.

4 compounds from US12559529B2, “NPY2 receptor agonists” (Boehringer Ingelheim International GmbH, priority 2019, dated 2026) can be followed below.

One experiment concerns the target T1, human NPY4 receptor (Homo sapiens, UniProt P50391).
T1 construct: expressed in transfected cells; host or cells: CHO-K1
Briefly: HTRF cAMP Gi assay, hY4R. The class given is cell-based. To be noted: Table 4; CHO-K1 cells. On the technique in general: TR-FRET usually uses a lanthanide donor and a delayed reading to cut background.

The next experiment concerns the target T2, human NPY2 receptor (Homo sapiens, UniProt P49146).
T2 sequence (P49146 1-381): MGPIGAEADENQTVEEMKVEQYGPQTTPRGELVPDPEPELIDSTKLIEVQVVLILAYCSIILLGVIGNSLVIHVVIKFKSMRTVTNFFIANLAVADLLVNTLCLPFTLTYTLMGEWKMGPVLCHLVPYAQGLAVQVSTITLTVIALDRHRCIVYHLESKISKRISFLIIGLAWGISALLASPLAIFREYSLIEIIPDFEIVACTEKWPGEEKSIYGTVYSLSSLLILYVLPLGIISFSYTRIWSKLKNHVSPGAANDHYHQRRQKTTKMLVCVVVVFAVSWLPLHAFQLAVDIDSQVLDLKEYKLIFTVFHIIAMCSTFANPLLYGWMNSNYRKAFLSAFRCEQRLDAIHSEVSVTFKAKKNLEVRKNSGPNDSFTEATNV
Briefly: HTRF cAMP Gi assay, hY2R.

For another experiment, the target named is T3, human NPY1 receptor (Homo sapiens, UniProt P25929).
T3 construct: expressed in transfected cells; host or cells: CHO-K1
T3 sequence (P25929 1-384): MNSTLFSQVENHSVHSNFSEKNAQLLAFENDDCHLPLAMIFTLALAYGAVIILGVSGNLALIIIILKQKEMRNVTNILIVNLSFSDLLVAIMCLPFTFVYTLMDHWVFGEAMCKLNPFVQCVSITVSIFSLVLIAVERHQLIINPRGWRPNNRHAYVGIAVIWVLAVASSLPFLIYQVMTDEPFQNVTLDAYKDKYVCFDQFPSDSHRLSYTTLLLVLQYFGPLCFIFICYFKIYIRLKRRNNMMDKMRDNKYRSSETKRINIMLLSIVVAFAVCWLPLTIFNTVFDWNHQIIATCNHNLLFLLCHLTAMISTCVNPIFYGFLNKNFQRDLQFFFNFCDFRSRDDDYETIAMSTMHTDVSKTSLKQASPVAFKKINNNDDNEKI
Description: HTRF cAMP Gi assay, hY1R. In kind it is cell-based. To be noted: Table 4; CHO-K1 cells.

For another experiment, the target named is T4, human NPY5 receptor (Homo sapiens, UniProt Q15761).
T4 sequence (Q15761 1-445): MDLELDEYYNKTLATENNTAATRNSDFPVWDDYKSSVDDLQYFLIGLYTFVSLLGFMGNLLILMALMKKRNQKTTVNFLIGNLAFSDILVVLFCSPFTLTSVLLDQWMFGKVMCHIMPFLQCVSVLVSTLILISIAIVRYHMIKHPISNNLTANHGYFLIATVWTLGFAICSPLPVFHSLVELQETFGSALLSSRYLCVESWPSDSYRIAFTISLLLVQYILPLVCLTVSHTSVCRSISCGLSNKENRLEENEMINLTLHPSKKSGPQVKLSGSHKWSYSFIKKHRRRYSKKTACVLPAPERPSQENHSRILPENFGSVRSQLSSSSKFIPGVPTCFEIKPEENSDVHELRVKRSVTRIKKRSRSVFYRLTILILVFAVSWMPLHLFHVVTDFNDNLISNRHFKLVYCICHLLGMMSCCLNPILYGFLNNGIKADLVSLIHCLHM
Briefly: HTRF cAMP Gi assay, hY5R.

The next experiment relates to normal NMRI mice. Description: Effect on acute food intake in normal NMRI mice. In kind it is in vivo. To be noted: male NMRI mice, 10 nmol/kg subcutaneously once. In short, it runs like this: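 Male NMRI mice acclimatized in an HM-2 real-time food intake monitoring system, fasted 6 h before dark phase. Single subcutaneous dose of 10 nmol/kg peptide given 1 h before dark; n=7-8. Food intake expressed as % of vehicle group (50 mM phosphate pH7, 5% Mannitol).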

The target of experiment [1] is T5, Human Neuropeptide Y2 Receptor (Homo sapiens, UniProt P49146).
T5 construct: purchased CHEMICON HTS066M
T5 sequence (P49146 1-381): T2 sequence (P49146 1-381)
Briefly: Radioligand binding competition assay (RLB). To be noted: Table 3; human 125I-PYY (1-36) 0.02 nM, Y2 receptor membranes; read-out: Ki. In short, it runs like this:
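Filtration format; Y2R membrane prep 0.5 μg/well; buffer 50 mM HEPES/5 mM MgCl2/1 mM CaCl2/0.2% ovalbumin pH 7.4; 2 h RT, shaking. Harvest on PEI-soaked GF/C, ice-cold HEPES/500 mM NaCl washes, scintillation count. IC50 by nonlinear fit.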

T1 sequence (P50391 whole entry): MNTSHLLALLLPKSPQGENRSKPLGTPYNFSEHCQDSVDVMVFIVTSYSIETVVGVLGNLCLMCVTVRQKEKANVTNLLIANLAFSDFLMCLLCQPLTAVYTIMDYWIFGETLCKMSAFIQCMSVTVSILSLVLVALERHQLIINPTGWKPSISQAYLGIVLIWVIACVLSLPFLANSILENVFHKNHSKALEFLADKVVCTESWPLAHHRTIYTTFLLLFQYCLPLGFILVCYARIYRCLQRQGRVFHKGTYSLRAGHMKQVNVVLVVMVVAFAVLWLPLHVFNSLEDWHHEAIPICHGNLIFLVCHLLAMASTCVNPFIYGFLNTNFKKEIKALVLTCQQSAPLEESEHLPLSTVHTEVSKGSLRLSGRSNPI
Description for human NPY2 receptor: Briefly, the production of intracellular cAMP will generate a competition between unlabeled cAMP and exogenously added d2-cAMP for anti-cAMP antibodies conjugated to cryptate. CHO-K1 cells stably expressing the human NPY1, NPY2, NPY4 and NPY5 receptors were used with the cells brought to life from a frozen stock immediately before assay performance. 2000 cells per well were applied for all four NPY receptor subtype assays. A 384-well format was used applying a total volume of 20 μl using 5 μl cells, 2.5 μl peptide agonist, 2.5 μl forskolin and 5 μl of each of the fluorophores. […] Concentration-response evaluation of compounds was performed with 11 concentrations of agonist peptides (covering 3 decades). EC50 values were calculated by nonlinear regression using sigmoid concentration-response with variable slope.
Description for human NPY4 receptor: The Homogenous Time Resolved fluorescence (HTRF) technology optimized for Gi coupled receptors has thoroughly been described in Cisbio cAMP Gi kit manual. Briefly, the production of intracellular cAMP will generate a competition between unlabeled cAMP and exogenously added d2-cAMP for anti-cAMP antibodies conjugated to cryptate. CHO-K1 cells stably expressing the human NPY1, NPY2, NPY4 and NPY5 receptors were used with the cells brought to life from a frozen stock immediately before assay performance. 2000 cells per well were applied for all four NPY receptor subtype assays. A 384-well format was used applying a total volume of 20 μl using 5 μl cells, 2.5 μl peptide agonist, 2.5 μl forskolin and 5 μl of each of the fluorophores. […] Concentration-response evaluation of compounds was performed with 11 concentrations of agonist peptides (covering 3 decades). EC50 values were calculated by nonlinear regression using sigmoid concentration-response with variable slope.

In the case of `CC(C)CC(=O)N[C@@H](C)C(=O)N1CCC[C@H]1C(=O)N[C@@H](CCC(=O)O)C(=O)N[C@@H](CCCCNC(=O)COCCOCCNC(=O)COCCOCCNC(=O)CC[C@H](NC(=O)CCCCCCCCCCCCCCCCC(=O)O)C(=O)O)C(=O)N1CCC[C@H]1C(=O)N[C@@H](CCC(=O)O)C(=O)N[C@@H](CCC(=O)O)C(=O)N[C@@H](CC(=O)O)C(=O)N[C@@H](C)C(=O)N[C@@H](CCC(=O)O)C(=O)N1CCC[C@H]1C(=O)N[C@@H](CCC(=O)O)C(=O)N[C@@H](CCC(=O)O)C(=O)N[C@@H](CC(C)C)C(=O)N[C@@H](CCC(N)=O)C(=O)N[C@@H](CCC(N)=O)C(=O)N[C@@H](Cc1ccc(O)cc1)C(=O)N[C@@H](Cc1ccc(O)cc1)C(=O)N[C@H](C(=O)N[C@@H](CO)C(=O)N[C@@H](CC(C)C)C(=O)N[C@@H](CCCNC(=N)N)C(=O)N[C@@H](Cc1c[nH]cn1)C(=O)N[C@@H](Cc1ccc(O)cc1)C(=O)N[C@@H](Cc1ccc(O)cc1)C(=O)N[C@@H](CC(N)=O)C(=O)N[C@@H](Cc1c[nH]c2ccccc12)C(=O)N[C@@H](CC(C)C)C(=O)N[C@H](C(=O)N[C@@H](CCCNC(=N)N)C(=O)N[C@@H](CCC(N)=O)C(=O)N[C@@H](CCCNC(=N)N)C(=O)N[C@@H](Cc1ccc(O)cc1)C(N)=O)[C@@H](C)O)C(C)C` [Compound 18, N{alpha-4}-(3-methylbutanoyl)-N{epsilon-7}-[2-(2-{2-[2-(2-{2-[(4S)-4-carboxy-4-(17-carboxyheptadecanamido)butanamido]ethoxy}ethoxy)acetamido]ethoxy}ethoxy)acetamido]-[4A,7K,9E,13E,18Q,19Q,22V,28Y,30W,31L]hPYY (4-36)], the pEC50 at human NPY4 receptor is under 5.30; on human NPY2 receptor it was 9.78; at human NPY1 receptor it was under 5.30; on human NPY5 receptor, under 5.30. Besides, in the experiment on normal NMRI mice, the “Acute Food Intake 24 h [% vehicle]” value amounted to 58 % vehicle. The negative-log Ki (pKi) in experiment [1] was 8.43.
Regarding `CC(C)CC(=O)N[C@@H](C)C(=O)N1CCC[C@H]1C(=O)N[C@@H](CCC(=O)O)C(=O)N[C@@H](CCCCNC(=O)COCCOCCNC(=O)COCCOCCNC(=O)CC[C@H](NC(=O)CCCCCCCCCCCCCCCCC(=O)O)C(=O)O)C(=O)N1CCC[C@H]1C(=O)N[C@@H](CCC(=O)O)C(=O)N[C@@H](CCC(=O)O)C(=O)N[C@@H](CCC(=O)O)C(=O)N[C@@H](C)C(=O)N[C@H](C(=O)N1CCC[C@H]1C(=O)N[C@@H](CCC(=O)O)C(=O)N[C@@H](CCC(=O)O)C(=O)N[C@@H](CC(C)C)C(=O)N[C@@H](CCC(N)=O)C(=O)N[C@@H](CCCNC(=N)N)C(=O)N[C@@H](Cc1ccc(O)cc1)C(=O)N[C@@H](Cc1ccc(O)cc1)C(=O)N[C@H](C(=O)N[C@@H](CO)C(=O)N[C@@H](CC(C)C)C(=O)N[C@@H](CCCNC(=N)N)C(=O)N[C@@H](Cc1c[nH]cn1)C(=O)N[C@@H](Cc1ccc(O)cc1)C(=O)N[C@@H](Cc1ccc(O)cc1)C(=O)N[C@@H](CC(N)=O)C(=O)N[C@@H](Cc1c[nH]c2ccccc12)C(=O)N[C@@H](CC(C)C)C(=O)N[C@H](C(=O)N[C@@H](CCCNC(=N)N)C(=O)N[C@@H](CCC(N)=O)C(=O)N[C@@H](CCCNC(=N)N)C(=O)N[C@@H](Cc1ccc(O)cc1)C(N)=O)[C@@H](C)O)C(C)C)[C@@H](C)O` [Compound 41, N{alpha-4}-(3-methylbutanoyl)-N{epsilon-7}-[2-(2-{2-[2-(2-{2-[(4S)-4-carboxy-4-(17-carboxyheptadecanamido)butanamido]ethoxy}ethoxy)acetamido]ethoxy}ethoxy)acetamido]-[4A,7K,9E,11E,13T,18Q,22V,28Y,30W,31L]hPYY (4-36)], the pEC50 is under 5.30 on human NPY4 receptor, 9.80 at human NPY2 receptor, under 5.30 on human NPY1 receptor and under 5.30 on human NPY5 receptor. The “Acute Food Intake 24 h [% vehicle]” value in the experiment with normal NMRI mice amounted to 44 % vehicle. The pKi in experiment [1] is 8.49.
Take `CC(C)CC(=O)N[C@@H](C)C(=O)N1CCC[C@H]1C(=O)N[C@@H](CCC(=O)O)C(=O)N[C@@H](CCCCNC(=O)COCCOCCNC(=O)COCCOCCNC(=O)CC[C@H](NC(=O)CCCCCCCCCCCCCCCCC(=O)O)C(=O)O)C(=O)N1CCC[C@H]1C(=O)N[C@@H](CCC(=O)O)C(=O)N[C@@H](CCC(=O)O)C(=O)N[C@@H](CCC(=O)O)C(=O)N[C@@H](C)C(=O)N[C@@H](CO)C(=O)N1CCC[C@H]1C(=O)N[C@@H](CCC(=O)O)C(=O)N[C@@H](CCC(=O)O)C(=O)N[C@@H](CC(C)C)C(=O)N[C@@H](CCC(N)=O)C(=O)N[C@@H](CCCNC(=N)N)C(=O)N[C@@H](Cc1ccc(O)cc1)C(=O)N[C@@H](Cc1ccc(O)cc1)C(=O)N[C@H](C(=O)N[C@@H](CO)C(=O)N[C@@H](CC(C)C)C(=O)N[C@@H](CCCNC(=N)N)C(=O)N[C@@H](Cc1c[nH]cn1)C(=O)N[C@@H](Cc1ccc(O)cc1)C(=O)N[C@@H](Cc1ccc(O)cc1)C(=O)N[C@@H](CC(N)=O)C(=O)N[C@@H](Cc1c[nH]c2ccccc12)C(=O)N[C@@H](CC(C)C)C(=O)N[C@H](C(=O)N[C@@H](CCCNC(=N)N)C(=O)N[C@@H](CCC(N)=O)C(=O)N[C@@H](CCCNC(=N)N)C(=O)N[C@@H](Cc1ccc(O)cc1)C(N)=O)[C@@H](C)O)C(C)C` [Compound 46, N{alpha-4}-(3-methylbutanoyl)-N{epsilon-7}-[2-(2-{2-[2-(2-{2-[(4S)-4-carboxy-4-(17-carboxyheptadecanamido)butanamido]ethoxy}ethoxy)acetamido]ethoxy}ethoxy)acetamido]-[4A,7K,9E,11E,18Q,22V,28Y,30W,31L]hPYY (4-36)]: the pEC50 is under 5.30 on human NPY4 receptor, 9.82 on human NPY2 receptor, under 5.30 on human NPY1 receptor and under 5.30 at human NPY5 receptor. For the same compound, in the experiment with normal NMRI mice, the “Acute Food Intake 24 h [% vehicle]” value amounted to 39 % vehicle. In addition, the negative-log Ki (pKi) in experiment [1] was 8.48.
As to `CC(C)CC(=O)N[C@@H](C)C(=O)N1CCC[C@H]1C(=O)N[C@@H](CCC(=O)O)C(=O)N[C@@H](CCCCNC(=O)COCCOCCNC(=O)COCCOCCNC(=O)CC[C@H](NC(=O)CCCCCCCCCCCCCCCCC(=O)O)C(=O)O)C(=O)N1CCC[C@H]1C(=O)N[C@@H](CCC(=O)O)C(=O)N[C@@H](CCC(=O)O)C(=O)N[C@@H](CC(=O)O)C(=O)N[C@@H](C)C(=O)N[C@@H](CO)C(=O)N1CCC[C@H]1C(=O)N[C@@H](CCC(=O)O)C(=O)N[C@@H](CCC(=O)O)C(=O)N[C@@H](CC(C)C)C(=O)N[C@@H](CCC(N)=O)C(=O)N[C@@H](CCCNC(=N)N)C(=O)N[C@@H](Cc1ccc(O)cc1)C(=O)N[C@@H](Cc1ccc(O)cc1)C(=O)N[C@H](C(=O)N[C@@H](CO)C(=O)N[C@@H](CC(C)C)C(=O)N[C@@H](CCCNC(=N)N)C(=O)N[C@@H](Cc1c[nH]cn1)C(=O)N[C@@H](Cc1ccc(O)cc1)C(=O)N[C@@H](Cc1ccc(O)cc1)C(=O)N[C@@H](CC(N)=O)C(=O)N[C@@H](Cc1c[nH]c2ccccc12)C(=O)N[C@@H](CC(C)C)C(=O)N[C@H](C(=O)N[C@@H](CCCNC(=N)N)C(=O)N[C@@H](CCC(N)=O)C(=O)N[C@@H](CCCNC(=N)N)C(=O)N[C@@H](Cc1ccc(O)cc1)C(N)=O)[C@@H](C)O)C(C)C` [Compound 54, N{alpha-4}-(3-methylbutanoyl)-N{epsilon-7}-[2-(2-{2-[2-(2-{2-[(4S)-4-carboxy-4-(17-carboxyheptadecanamido)butanamido]ethoxy}ethoxy)acetamido]ethoxy}ethoxy)acetamido]-[4A,7K,9E,18Q,22V,28Y,30W,31L]hPYY (4-36)], the negative logarithm of the EC50 (pEC50) is under 5.30 at human NPY4 receptor, 9.88 at human NPY2 receptor, under 5.30 at human NPY1 receptor and under 5.30 at human NPY5 receptor. The “Acute Food Intake 24 h [% vehicle]” value in the experiment with normal NMRI mice is 42 % vehicle. In addition, the pKi in experiment [1] was 9.02.
